Test results reported in US20220401482A1, “GENERATION OF CD38 KNOCK-OUT PRIMARY AND EXPANDED HUMAN NK CELLS” (RESEARCH INSTITUTE AT NATIONWIDE CHILDREN'S HOSPITAL, priority 2019, published 2022).

Experiments:
CD38 on MM cell lines = experiment: CD38 expression on MM cell lines after ATRA; format: cell-based, human; conditions: pretreatment, 50 nM, 48 hours
Excerpt: Control and ATRA treated samples are shown with black and gray line respectively. Unstained controls are depicted with filled histogram.

CD38 on NK cells [1] = experiment: CD38 expression on PB-NK of APL patients during ATRA treatment; format: in vivo, human; conditions: consolidation therapy, versus prior to treatment
Method: (§1) FIGS. 15A-15B show cytotoxicity and DARA-mediated ADCC activity of paired CD38^WT and CD38^KO NK cells against myeloma cell lines pretreated with 50 nM ATRA for 48 hours (mean±SD). […] Frozen peripheral blood mononuclear cells were thawed and analyzed at once. […] Control and ATRA treated samples are shown with black and gray line respectively. Unstained controls are depicted with filled histogram. […] FIGS. 15F-15G Cytotoxicity and DARA-mediated ADCC activity of paired CD38^WT and CD38^KO NK cells against myeloma cell lines in a 48 hour-cytotoxicity assay in the presence of 50 nM ATRA or solvent control. E:T ratio is 0.25:1 for MM.1S and 0.5:1 for KMS-11 (mean±SD).

CD38 on NK cells [2] = experiment: CD38 expression on NK cells after ex vivo ATRA; format: cell-based, human; conditions: 50 nM, 48 hours
Method: as §1

MM cell lines = experiment: Flow-based cytotoxicity / ADCC assay; format: cell-based, human
Method: NK function assays. NK cell conjugation assay was performed as previously published and as detailed above. To quantify fratricide, CD38^WT and CD38^KO NK cells were each treated with 10 μg/ml of DARA or solvent control for 4 or 24 hours, then stained with PO-PRO™-1 dye (Invitrogen, Eugene, Oreg.) and 7-aminoactinomycin D (7-AAD) (Invitrogen, Eugene, Oreg.)^15. Flow-based killing assays were performed as detailed in Supplemental Methods. In brief, CD38^WT or CD38^KO NK cells were co-cultured with CFSE-labeled target MM cells for 4 or 24 hours in the presence of 10 μg/ml of DARA or solvent as control.
(§2) To assess ADCC, MM cell lines or purified primary CD138^+ MM cells were labeled with 5 μM of CFSE and co-cultured with CD38^WT or CD38^KO NK cells at the indicated effector-to-target (E:T) ratios in flat bottom 96-well plates (Falcon, USA) in the presence of 10 μg/ml of DARA or solvent as control^38. […] The viability of target cells was analyzed after 4 hours for MM cell lines, and 24 hours for primary samples. In some experiments, myeloma cell lines were pretreated with 50 nM of ATRA for 2 days prior to 4-hour cytotoxicity assay. To study the effect of ATRA on overall DARA-mediated NK cell cytotoxicity, MM cells and NK cells were co-cultured for 48 hours in the presence of DARA and 50 nM of ATRA. Viable target cells were assessed from the percent or absolute number of 7-AAD negative/CFSE positive cells among total CFSE positive cells or using beads. Background was determined from the target cells incubated in the absence of effector cells and DARA. The percentage of DARA-mediated ADCC (%) was calculated according to the formula: (1−the percent or absolute number of viable target cells in the presence of effector cells with DARA/that of the corresponding sample with solvent control)×100. All assays were performed in triplicate with 2 or 3 independent donors.

NK cells [3] = experiment: NK cell fratricide assay (viability of NK cells treated with anti-CD38 antibody); format: cell-based, human; conditions: DARA 48 hours with 50 nM ATRA
Method: NK function assays. NK cell conjugation assay was performed as previously published and as detailed above. […] Flow-based killing assays were performed as detailed in Supplemental Methods. In brief, CD38^WT or CD38^KO NK cells were co-cultured with CFSE-labeled target MM cells for 4 or 24 hours in the presence of 10 μg/ml of DARA or solvent as control.
[…] Viable NK cells (PO-PRO™-1 negative/7-AAD negative) were assessed based on the frequency or absolute number using beads (Becton Dickinson Biosciences).

NK cells [4] = conditions: patients; cited from earlier work
H929 cell line = experiment: Flow-based cytotoxicity assay; format: cell-based, human; conditions: absence of NK cells and complement, DARA 10 μg/ml, 4 hours
Method: FIGS. 11A-11D show resistance of CD16^KO NK cells to DARA-induced fratricide.
as §2

[5] = concurrent treatment of MM and NK cells, 50 nM, 48 hours

Compound | CD38 levels on MM target cells (CD38 on MM cell lines) | CD38 on PB-NK of patients (CD38 on NK cells [1]) | CD38 levels on CD38^KO NK cells (CD38 on NK cells [2]) | CD38 levels on CD38^WT NK cells (CD38 on NK cells [2]) | DARA-mediated ADCC (MM cell lines; MM cells pretreated with ATRA, both CD38^WT and CD38^KO NK cells) | DARA-mediated ADCC of CD38^KO NK cells (MM cell lines; [5]) | DARA-mediated ADCC of CD38^WT NK cells (MM cell lines; [5]) | direct cytotoxicity of CD38^WT and paired CD38^KO NK cells (MM cell lines; concurrent treatment, 50 nM, 48 hours) | fratricide of CD38^WT NK cells (NK cells [3]) | persistence of decrease in circulating NK cells after discontinuation of treatment (NK cells [4]) | DARA-mediated lysis (H929 cell line)
CC1=C(/C=C/C(C)=C/C=C/C(C)=C/C(=O)O)C(C)(C)CCC1 [ATRA, all-trans retinoic acid] | up-regulates CD38 levels | significant up-regulation of CD38 | not on the paired CD38^KO NK cells | up-regulates CD38 levels | improves DARA-mediated ADCC | no impact | significantly impaired | significantly reduced direct cytotoxicity | enhanced fratricide | – | –
DARA: monoclonal antibody targeting CD38 | – | – | – | – | – | – | – | – | – | 3-6 months | no DARA-mediated lysis
